{"source": "patent US20070161547A1", "about": "“Modulation of survivin expression” (priority 2003, published 2007)", "note": "Oligonucleotides are written 5' to 3', each unit as a sugar letter and its base; * is a phosphorothioate linkage, no mark a phosphodiester; rarer units and linkages stand in square brackets, end groups in braces. Plain capitals give the bases only. e = 2'-O-(2-methoxyethyl) (MOE); m = 2'-O-methyl; r = 2'-OH (RNA); {P} = phosphate", "data": [{"system": "human survivin mRNA", "assay": "IC50 of dsRNA for survivin mRNA, dose response by quantitative RT-PCR (\"D\")", "type": "cell-based", "details": "D (dose response, mRNA levels), HeLa cells; read-out: IC50", "protocol": "(§1) Representative parameters that can be studied include, for example, translation of survivin mRNAs or survivin protein synthesis; effect on surrogate markers; or any other parameter that is indicative of potential dsRNA therapeutic effectiveness that can be conveniently measured in vitro.\n(§2) For western blot analysis, cells are plated in 10 cm tissue culture dishes (Falcon, #3003) at a density of 7.5×10^5 cells/dish. For RT-PCR analysis, 96-well plates (Corning Incorporated, #3596) are plated with 1×10^4 cells/well. Lipofectin (GIBCO/Invitrogen) transfection reagent is used at a concentration of 3 ul/ml OPTIMEM reduced serum medium (Gibco/Invitrogen)/100 nM siRNA duplex. Lipofectin reagent is incubated with OPTIMEM medium for 30 minutes prior to the addition of siRNA. The desired amount of siRNA is added and mixed. Further 1:1 dilutions are performed in OPTIMEM. Cells are washed twice with 1× phosphate buffered saline and then treated with the siRNA/Lipofectin mixture in OPTIMEM. After a 4 hr incubation period, OPTIMEM medium is replaced with complete growth medium. Cells are harvested after additional 16-20 hrs for Western blot or RT-PCR analysis.\n(§3) Total RNA is isolated using RNeasy® 96 kit according to recommended protocol (Qiagen). Briefly, cells are washed with 200 ul PBS after removal of growth medium. Following washing, 100 μl buffer RLT is added, plate is shaken vigorously for about 20 seconds. To each well 100 μl 70% ethanol are added and mixed by pipetting up and down three times. Samples are then applied into the wells of the RNeasy 96 plate placed in the QIAvac top base of the QIAvac 96 manifold, which is attached to a vacuum source. Vacuum is applied for 30 seconds or until transfer is complete. To each well 80 μl of DNase I incubation mix (20 mM Tris-HCl, pH 8.4, 2 mM MgCl2, 50 mM KCl and 225 Units/ml DNase I from Invitrogen) is added and incubated at room temperature for 30 minutes. Buffer RW1 (1 ml/well) is added and the vacuum is applied for 30 seconds. Buffer RPE (1 ml/well) is added to each well and vacuum is applied for 30 seconds. Washing steps with buffer RW1 and RPE1 are repeated once more. The plate is then removed from the manifold and blotted dry on paper towels. The plate is placed back in the QIAvac manifold and the vacuum is applied for 10 minutes. To elute RNA 30 μl of RNase-free water is added directly onto the membrane of each well, incubated for 1 minutes and vacuum is applied for 30 seconds. In order to maximize the recovery of total RNA the elution step is repeated with additional 30 μl/well RNase-free water.\n(§4) Quantitation of survivin and GAPDH mRNA levels is determined by real-time quantitative RT-PCR using the ABI PRISM® 7900 Sequence Detection System (Applied Biosystems). RT-PCR reactions are carried out by adding 15 ul of TaqMan One Step PCR Master Mix (Applied Biosystems, #4309169) reagents (containing 100 nM each of forward primer and reverse primer, and 200 nM probe) to 96-well plates with 10 μl total RNA. For human survivin, the forward PCR primer is: 5′[…]3′ (SEQ ID NO: 186), and the reverse primer is: 5′[…]3′ (SEQ ID NO: 187). The survivin TaqMan® probe used is 5′(FAM)[…]3′ (SEQ ID NO: 188) (Biosearch Technologies, Inc.). This primer-probe set, designed to SEQ ID No 14 was used for all experiments in Examples 15 to the end. For human GAPDH, TaqMan GAPDH Control Reagent Kit is used (Applied Biosystems, #402869). The percentage inhibition for each samples are calculated by comparing the survivin/GAPDH mRNA ratio for the sample to survivin/GAPDH mRNA ratio for the untreated control. The IC50 is derived from the non-linear regression analysis of the percentage inhibition data using GraphPad Prism software (GraphPad Software).\n(§5) The constructs tested comprise the antisense strand in the 5′-3′ orientation, and the sense strand in the 5′ to 3′ orientation, In Table 15, “D” is dose response (mRNA levels) and “W” is Western blot. […]", "units": {"IC50": "nM"}, "values": [{"substance": "339048_346294 (antisense AUUUGAAAAUGUUGAUCUCC; sense rA*rGrG*rArG*rArU*rCrA*rArC*rArU*rUrU*rUrC*rArA*rA; siRNA; antisense: unmodified RNA)", "IC50": 0.24}]}, {"system": "human survivin mRNA", "assay": "IC50 of dsRNA for survivin mRNA, dose response by quantitative RT-PCR (\"D\")", "type": "cell-based", "details": "Table 16; cell line not given; read-out: IC50 (nM) mRNA, dsRNA to human survivin", "protocol": "as §1, §2, §3, §4, §5", "units": {"IC50": "nM"}, "values": [{"substance": "ISIS 352507_352514: blunt-ended siRNA duplex: antisense 352507, sense 352514 (antisense mUrUmUrGmArAmArAmUrGmUrUmGrAmUrCmUrCmC; sense GGAGAUCAACAUUUUCAAA; sense: sugars from the 5' end rererererererererer, all phosphodiester, methylation of C and T or U not given here)", "IC50": 0.21}, {"substance": "ISIS 352506_352514: blunt-ended siRNA duplex: antisense 352506, sense 352514 (antisense mUrUrUrGrAmAmArArUmGrUrUrGrArUrCmUmCmC; sense GGAGAUCAACAUUUUCAAA; sense: sugars from the 5' end rererererererererer, all phosphodiester, methylation of C and T or U not given here)", "IC50": 0.12}, {"substance": "ISIS 352507_346287: dsRNA duplex: antisense 352507, sense 346287 (antisense mUrUmUrGmArAmArAmUrGmUrUmGrAmUrCmUrCmC; sense rG*rG*rA*rG*rA*rU*rC*rA*rA*rC*rA*rU*rU*rU*rU*rC*rA*rA*rA)", "IC50": 0.8}, {"substance": "ISIS 353538_343868: dsRNA duplex: antisense 353538 (4'-thio), sense 343868 (unmodified) (antisense UUUGAAAAUGUUGAUCUCC; sense GGAGAUCAACAUUUUCAAA; antisense: all phosphodiester, sugars by position and methylation of C not given here; sense: RNA, phosphodiester; antisense has 4'-thioribose at some positions, positions stated inconsistently, further chemistry not fully specified)", "IC50": 0.16}, {"substance": "ISIS 352507_352511: blunt-ended siRNA duplex: antisense 352507, sense 352511 (antisense mUrUmUrGmArAmArAmUrGmUrUmGrAmUrCmUrCmC; sense GGAGAUCAACAUUUUCAAA; sense: all phosphodiester, sugars by position and methylation of C not given here; further chemistry not fully specified)", "IC50": 0.24}, {"substance": "ISIS 352507_352512: blunt-ended siRNA duplex: antisense 352507, sense 352512 (antisense mUrUmUrGmArAmArAmUrGmUrUmGrAmUrCmUrCmC; sense mGmGmAmGmAmUmCmAmAmCmAmUmUmUmUmCmAmAmA)", "IC50": 0.04}, {"substance": "ISIS 353539_343868: dsRNA duplex: antisense 353539, sense 343868 (antisense UUUGAAAAUGUUGAUCUCC; sense GGAGAUCAACAUUUUCAAA; chemical modifications, chemistry not fully specified)", "IC50": 0.13}, {"substance": "ISIS 346284_346287: blunt-ended siRNA 19 PO-PS/PS: antisense 346284, sense 346287 (antisense rUrU*rUrG*rArA*rArA*rUrG*rUrU*rGrA*rUrC*rUrC*rC; sense rG*rG*rA*rG*rA*rU*rC*rA*rA*rC*rA*rU*rU*rU*rU*rC*rA*rA*rA)", "IC50": 3.24}, {"substance": "ISIS 353540_343868: dsRNA duplex: antisense 353540, sense 343868 (antisense UUUGAAAAUGUUGAUCUCC; sense GGAGAUCAACAUUUUCAAA; chemical modifications, chemistry not fully specified)", "IC50": 0.11}, {"substance": "ISIS 355710_343868: dsRNA duplex: antisense 355710, sense 343868 (antisense UUUGAAAAUGUUGAUCUCC; sense GGAGAUCAACAUUUUCAAA; chemical modifications, chemistry not fully specified)", "IC50": 0.1}]}, {"system": "human survivin mRNA", "assay": "Inhibition of human survivin mRNA expression in HeLa cells, real-time quantitative PCR", "type": "cell-based", "details": "Table 11; 0.2 nM; 16 h; averages from two experiments", "procedure,_shortened": "(§6)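 Percent inhibition of survivin mRNA after antisense oligonucleotide treatment of HeLa cells, from a standard curve built on serially diluted untreated-control mRNA. Quantitation by TaqMan real-time RT-PCR with survivin-specific FAM/TAMRA probe and primers; GAPDH probed with JOE/TAMRA.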", "units": {"Percentage of Inhibition of survivin expression in HeLa cells": "%"}, "values": [{"substance": "339048_346294 (antisense AUUUGAAAAUGUUGAUCUCC; sense rA*rGrG*rArG*rArU*rCrA*rArC*rArU*rUrU*rUrC*rArA*rA; siRNA; antisense: unmodified RNA)", "Percentage of Inhibition of survivin expression in HeLa cells": 39}]}, {"system": "human survivin mRNA", "assay": "Inhibition of human survivin mRNA expression in HeLa cells, real-time quantitative PCR", "type": "cell-based", "details": "Table 11; 2.0 nM; 16 h; averages from two experiments", "procedure,_shortened": "as §6", "units": {"Percentage of Inhibition of survivin expression in HeLa cells": "%"}, "values": [{"substance": "339048_346294 (antisense AUUUGAAAAUGUUGAUCUCC; sense rA*rGrG*rArG*rArU*rCrA*rArC*rArU*rUrU*rUrC*rArA*rA; siRNA; antisense: unmodified RNA)", "Percentage of Inhibition of survivin expression in HeLa cells": 65}]}, {"system": "human survivin mRNA", "assay": "Inhibition of human survivin mRNA expression in HeLa cells, real-time quantitative PCR", "type": "cell-based", "details": "Table 11; 20.0 nM; 16 h; averages from two experiments", "procedure,_shortened": "as §6", "units": {"Percentage of Inhibition of survivin expression in HeLa cells": "%"}, "values": [{"substance": "339048_346294 (antisense AUUUGAAAAUGUUGAUCUCC; sense rA*rGrG*rArG*rArU*rCrA*rArC*rArU*rUrU*rUrC*rArA*rA; siRNA; antisense: unmodified RNA)", "Percentage of Inhibition of survivin expression in HeLa cells": 85}]}, {"system": "human survivin mRNA", "assay": "Inhibition of human survivin mRNA by single-stranded asRNA in HUVEC, real-time quantitative PCR", "type": "cell-based", "design": "concentration or dose not given beside the values", "details": "Table 7", "protocol": "HUVEC were obtained from ATCC and routinely cultured in EBM (Clonetics Corp, Walkersille, Md.) supplemented with SingleQuots supplements. Cells were routinely passaged by trypsinizaiton and dilution when they reached 90% confluence were maintained for up to 15 passages. For cells grown in 96-well plates (10,000 cells/well), wells were washed once with 200 μL OPTI-MEM-1™ reduced-serum medium (Gibco BRL) and then treated with 130 μL of OPTI-MEM-1™ containing 12 μg/mL LIPOFECTIN™ (Gibco BRL) and the desired double-stranded compounds at a final concentration of 25 nM. After 5 hours of treatment, the medium was replaced with fresh medium. Cells were harvested 16 hours after dsRNA treatment, at which time RNA was isolated and target reduction measured by RT-PCR.\nA series of single-stranded olgometric compounds (asRNA) was evaluated for their ability to inhibit human survivin in human umbilical vein endothelial cells (HUVEC). Culture methods used for HUVEC are found, for example, at www.atcc.org.\nData were obtained by real-time quantitative PCR as described in other examples herein.", "units": {"% INHIB, inhibition of human survivin mRNA levels by asRNA oligomeric compounds": "%"}, "values": [{"substance": "347445 (antisense {P}-rA*rC*rA*rG*rC*rA*rU*rC*rG*rA*rG*rC*rC*rA*rA*rG*rU*rC*rA*rU) [compound 347445]", "% INHIB, inhibition of human survivin mRNA levels by asRNA oligomeric compounds": 53}, {"substance": "347437 (antisense {P}-rG*rC*rU*rA*rU*rU*rC*rU*rG*rU*rG*rA*rA*rU*rU*rA*rA*rC*rA*rA) [compound 347437]", "% INHIB, inhibition of human survivin mRNA levels by asRNA oligomeric compounds": 54}, {"substance": "347442 (antisense {P}-rU*rA*rA*rU*rC*rA*rC*rA*rC*rA*rG*rC*rA*rG*rU*rG*rG*rC*rA*rA) [compound 347442]", "% INHIB, inhibition of human survivin mRNA levels by asRNA oligomeric compounds": 66}, {"substance": "347443 (antisense {P}-rG*rU*rG*rC*rC*rC*rC*rG*rC*rG*rG*rC*rU*rC*rA*rC*rU*rG*rG*rG) [compound 347443]", "% INHIB, inhibition of human survivin mRNA levels by asRNA oligomeric compounds": 54}, {"substance": "347430 (antisense {P}-rG*rC*rA*rA*rA*rA*rG*rG*rG*rA*rC*rA*rC*rU*rG*rC*rC*rU*rU*rC) [compound 347430]", "% INHIB, inhibition of human survivin mRNA levels by asRNA oligomeric compounds": 66}, {"substance": "347448 (antisense {P}-rU*rC*rC*rA*rU*rC*rA*rU*rC*rU*rU*rA*rC*rG*rC*rC*rA*rG*rA*rC) [compound 347448]", "% INHIB, inhibition of human survivin mRNA levels by asRNA oligomeric compounds": 58}, {"substance": "347432 (antisense {P}-rC*rA*rA*rC*rA*rU*rG*rA*rG*rG*rU*rC*rC*rA*rG*rA*rC*rA*rC*rA) [compound 347432]", "% INHIB, inhibition of human survivin mRNA levels by asRNA oligomeric compounds": 66}, {"substance": "347428 (antisense {P}-rA*rG*rA*rA*rG*rC*rA*rC*rC*rU*rC*rU*rG*rG*rU*rG*rC*rC*rA*rC) [compound 347428]", "% INHIB, inhibition of human survivin mRNA levels by asRNA oligomeric compounds": 60}, {"substance": "347450 (antisense {P}-rA*rU*rC*rC*rA*rC*rC*rC*rU*rG*rC*rA*rG*rC*rU*rC*rU*rA*rU*rG) [compound 347450]", "% INHIB, inhibition of human survivin mRNA levels by asRNA oligomeric compounds": 55}]}]}
